Legend:
rice [1] = assay: Test B pre-/postemergence herbicide test; format: in vivo, Oryza sativa; conditions: 0 = no effect, 100 = complete control, preemergence
Summary of the method: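 Greenhouse pot assay with simultaneous preemergence (treated seed) and postemergence (2–18 cm seedlings) applications of surfactant-containing, non-phytotoxic solvent formulations. Response scored visually 13–15 days later on a 0–100 scale, 100 meaning complete control.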

Surinam grass = assay: Test B pre-/postemergence herbicide test; format: in vivo, Urochloa decumbens; conditions: for Surinam Grass plant response rating: postemergence
Summary of the method: (§1)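 Plants compared with untreated controls 13–15 days post-treatment and given a visual 0–100 injury score. Applications: preemergence to seeds; postemergence at 1- to 4-leaf (2–18 cm); paddy species flooded, 2-leaf stage. Vehicle non-phytotoxic, surfactant included.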

[2] = test system: small flower umbrella sedge; assay: Test B flooded paddy test; format: in vivo, Cyperus difformis; conditions: 1000 g ai/ha, scale 0 to 100 (0 no effect, 100 complete control)
Summary of the method: (§2)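 Treated at 2-leaf (paddy) or 1–4-leaf, 2–18 cm (postemergence); greenhouse 13–15 d; visual score vs control, 0 none to 100 complete control; dash = not tested.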

rice [3] = assay: Test C flooded paddy test; format: in vivo, Oryza sativa
Summary of the method: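 Plants were grown to the 1- to 4-leaf stage (2–18 cm) and then treated postemergence, or grown to the 2-leaf stage for the flooded paddy test. They were held in a greenhouse for 12 to 14 days and then scored by eye against controls, where 0 is no effect and 100 is complete control.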

velvetleaf = assay: Test B pre-/postemergence herbicide test; format: in vivo, Abutilon theophrasti; conditions: for Velvetleaf plant response rating: postemergence
Summary of the method: as §1

ducksalad [4] = assay: Test B flooded paddy test; format: in vivo, Heteranthera limosa; conditions: 1000 g ai/ha, scale 0 to 100 (0 no effect, 100 complete control)
Summary of the method: as §2

wild oat = assay: Test B postemergence herbicide test; format: in vivo, Avena fatua; conditions: postemergence
Summary of the method: as §2

barnyardgrass [5] = assay: Test B pre-/postemergence herbicide test; format: in vivo, Echinochloa crus-galli; conditions: for Barnyardgrass plant response rating: postemergence, scale 0 (no effect) to 100 (complete control)
Summary of the method: (§3)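 Herbicidal effect was judged by eye on a 0–100 scale after plants stood 13 to 15 days in the greenhouse following pre- or postemergence treatment with surfactant-containing formulations.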

[6] = test system: smallflower umbrella sedge; assay: Test C flooded paddy test; format: in vivo, Cyperus difformis
wheat = assay: Test B postemergence herbicide test; format: in vivo, Triticum aestivum; parameters: key to Wheat plant response rating: 0 = no effect, 100 = complete control; conditions: postemergence
Summary of the method: as §2

giant foxtail = assay: Test B pre-/postemergence herbicide test; format: in vivo, Setaria faberi; conditions: for Foxtail, Giant plant response rating: postemergence
Summary of the method: as §1

rice [7] = assay: Test B flooded paddy test; format: in vivo, Oryza sativa; conditions: 1000 g ai/ha, scale 0 to 100 (0 no effect, 100 complete control)
Summary of the method: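 Formulated test chemicals went onto postemergence plants measuring 2 to 18 cm, at one to four leaves. For the paddy assay, species had reached two leaves. Scoring took place 13–15 days later by eye, relative to untreated plants, using 0 for no effect up to 100 for full control.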

barnyardgrass [8] = assay: Test C flooded paddy test; format: in vivo, Echinochloa crus-galli
Summary of the method: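 After a postemergence application at 1 to 4 leaves (plants 2–18 cm high), or at 2 leaves for barnyardgrass in flooded paddy, plants stayed in the greenhouse for 12 to 14 days. Damage was then judged visually relative to control plants, with 100 indicating complete control.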

large crabgrass = assay: Test B pre-/postemergence herbicide test; format: in vivo, Digitaria sanguinalis; conditions: for Crabgrass, Large plant response rating: postemergence
Summary of the method: as §1

barnyardgrass [9] = assay: Test B flooded paddy test; format: in vivo, Echinochloa crus-galli; conditions: 1000 g ai/ha, scale 0 to 100 (0 no effect, 100 complete control)
Summary of the method: as §2

pigweed = assay: Test B pre-/postemergence herbicide test; format: in vivo, Amaranthus retroflexus; conditions: for Pigweed plant response rating: postemergence
Summary of the method: as §1

lambsquarters = assay: Test B pre-/postemergence herbicide test; format: in vivo, Chenopodium album; conditions: for Lambsquarters plant response rating: postemergence
Summary of the method: as §1

corn = assay: Test B pre-/postemergence herbicide test; format: in vivo, Zea mays; conditions: for Corn plant response rating: postemergence
Summary of the method: as §1

ducksalad [10] = assay: Test C flooded paddy test; format: in vivo, Heteranthera limosa
morningglory = assay: Test B pre-/postemergence herbicide test; format: in vivo, Ipomoea coccinea; conditions: for Morningglory plant response rating: postemergence
Summary of the method: as §3

blackgrass = assay: Test B postemergence herbicide test; format: in vivo, Alopecurus myosuroides; conditions: postemergence, visual rating, scale 0 (no effect) to 100 (complete control)
Summary of the method: as §2

cocklebur = assay: Test B pre-/postemergence herbicide test; format: in vivo, Xanthium strumarium; conditions: for Cocklebur plant response rating: postemergence, scale 0 (no effect) to 100 (complete control)
Summary of the method: as §3

[11] = 125 g ai/ha, 0 = no effect, 100 = complete control, preemergence
[12] = 500 g ai/ha, visual rating, 0 = no effect, 100 = complete control, preemergence
[13] = 125 g ai/ha, visual rating, scale 0 (no effect) to 100 (complete control)
[14] = 500 g ai/ha, scale 0 to 100, 0 is no effect, 100 is complete control
[15] = 125 g ai/ha, scale 0 to 100 (0 no effect, 100 complete control)
[16] = 250 g ai/ha, scale of 0 to 100, 0 is no effect, 100 is complete control
[17] = 500 g ai/ha, visual rating after 12 to 14 days, scale 0 to 100 (0 no effect, 100 complete control)

For `CCn1nc(C(C)(C)C)cc1C(=O)Nc1cccc(C(=O)N2CCOCC2)n1` [Compound 247], the “Rice plant response rating (0 to 100 scale)” value (rice [1]; 125 g ai/ha) was 10, the “Plant response rating, Rice” value (rice [1]; 500 g ai/ha, visual rating) was 40 and the “Surinam Grass plant response rating (0 to 100 scale)” value (Surinam grass; [11]) was 20. The “Plant response rating, Surinam Grass” value (Surinam grass; [12]) was 50, the “Surinam Grass plant response rating” value (Surinam grass; [13]) was 10 and the “Surinam Grass plant response rating” value (Surinam grass; [14]) was 20. The “Sedge, Umbrella plant response rating” value [2] was 70, the “Rice plant response rating” value (rice [3]; 62 g ai/ha, scale 0 to 100) was 0 and the “Rice plant response rating” value (rice [3]; [15]) was 0. The “Rice plant response rating” value (rice [3]; [16]) was 20, the “Plant response rating, Rice” value (rice [3]; [17]) was 75 and the “Velvetleaf plant response rating (0 to 100 scale)” value (velvetleaf; [11]) was 20. For the same compound, the “Plant response rating, Velvetleaf” value (velvetleaf; [12]) was 100, the “Velvetleaf plant response rating” value (velvetleaf; [13]) was 30 and the “Velvetleaf plant response rating” value (velvetleaf; [14]) was 70. For the same compound, the “Ducksalad plant response rating” value (ducksalad [4]) was 80, the “Oat, Wild plant response rating” value (wild oat; [13]) was 0 and the “Oat, Wild plant response rating” value (wild oat; [14]) was 10. For the same compound, the “Barnyardgrass plant response rating (0 to 100 scale)” value (barnyardgrass [5]; [11]) was 30, the “Plant response rating, Barnyardgrass” value (barnyardgrass [5]; [12]) was 80 and the “Barnyardgrass plant response rating” value (barnyardgrass [5]; 125 g ai/ha, visual rating) was 0. The “Barnyardgrass plant response rating” value (barnyardgrass [5]; 500 g ai/ha, visual rating) was 10, the “Sedge, Umbrella plant response rating” value ([6]; 62 g ai/ha, scale 0 to 100) was 0 and the “Sedge, Umbrella plant response rating” value [6, 15] was 0. For the same compound, the “Sedge, Umbrella plant response rating” value [6, 16] was 15, the “Plant response rating, Sedge, Umbrella” value [6, 17] was 75 and the “Wheat plant response rating” value (wheat; [13]) was 0. The “Wheat plant response rating” value (wheat; [14]) was 0, the “Foxtail, Giant plant response rating (0 to 100 scale)” value (giant foxtail; [11]) was 10 and the “Plant response rating, Foxtail, Giant” value (giant foxtail; [12]) was 70. The “Foxtail, Giant plant response rating” value (giant foxtail; [13]) was 10, the “Foxtail, Giant plant response rating” value (giant foxtail; [14]) was 20 and the “Rice plant response rating” value (rice [7]) was 80. For the same compound, the “Barnyardgrass plant response rating” value (barnyardgrass [8]; 62 g ai/ha, scale 0 to 100 (0 no effect, 100 complete control)) was 0, the “Barnyardgrass plant response rating” value (barnyardgrass [8]; [15]) was 0 and the “Barnyardgrass plant response rating” value (barnyardgrass [8]; [16]) was 0. The “Plant response rating, Barnyardgrass” value (barnyardgrass [8]; [17]) was 0, the “Crabgrass, Large plant response rating (0 to 100 scale)” value (large crabgrass; [11]) was 20 and the “Plant response rating, Crabgrass, Large” value (large crabgrass; [12]) was 80. For the same compound, the “Crabgrass, Large plant response rating” value (large crabgrass; [13]) was 10, the “Crabgrass, Large plant response rating” value (large crabgrass; [14]) was 10 and the “Barnyardgrass plant response rating” value (barnyardgrass [9]) was 70. For the same compound, the “Pigweed plant response rating (0 to 100 scale)” value (pigweed; [11]) was 100, the “Plant response rating, Pigweed” value (pigweed; [12]) was 100 and the “Pigweed plant response rating” value (pigweed; [13]) was 60. The “Pigweed plant response rating” value (pigweed; [14]) was 60, the “Lambsquarters plant response rating (0 to 100 scale)” value (lambsquarters; [11]) was 80 and the “Plant response rating, Lambsquarters” value (lambsquarters; [12]) was 100. For the same compound, the “Lambsquarters plant response rating” value (lambsquarters; [13]) was 60, the “Lambsquarters plant response rating” value (lambsquarters; [14]) was 70 and the “Corn plant response rating (0 to 100 scale)” value (corn; [11]) was 0. The “Plant response rating, Corn” value (corn; [12]) was 30, the “Corn plant response rating” value (corn; [13]) was 0 and the “Corn plant response rating” value (corn; [14]) was 20. The “Ducksalad plant response rating” value (ducksalad [10]; 62 g ai/ha, scale 0 to 100) was 0, the “Ducksalad plant response rating” value (ducksalad [10]; [15]) was 0 and the “Ducksalad plant response rating” value (ducksalad [10]; [16]) was 0. The “Plant response rating, Ducksalad” value (ducksalad [10]; [17]) was 80, the “Morningglory plant response rating (0 to 100 scale)” value (morningglory; [11]) was 0 and the “Plant response rating, Morningglory” value (morningglory; [12]) was 10. For the same compound, the “Morningglory plant response rating” value (morningglory; [13]) was 20, the “Morningglory plant response rating” value (morningglory; [14]) was 30 and the “Blackgrass plant response rating” value (blackgrass; 125 g ai/ha) was 0. The “Blackgrass plant response rating” value (blackgrass; 500 g ai/ha) was 0, the “Cocklebur plant response rating (0 to 100 scale)” value (cocklebur; [11]) was 0 and the “Plant response rating, Cocklebur” value (cocklebur; [12]) was 0. The “Cocklebur plant response rating” value (cocklebur; 125 g ai/ha, visual rating) was 0 and the “Cocklebur plant response rating” value (cocklebur; 500 g ai/ha, visual rating) was 30.
